Results reported in ChEMBL document CHEMBL1268965, “Synthesis and antifungal activity of a novel series of 13-(4-isopropylbenzyl)berberine derivatives” (Bioorg Med Chem Lett, 2010).
Values after ≈ are worked out from the molar mass of the structure shown.

Assays:
Candida albicans = assay: Antifungal activity against Candida albicans ATCC 10231 after 24 hrs by two fold serial dilution method; format: functional; details: ATCC 10231, 24 h
Candida tropicalis = assay: Antifungal activity against Candida tropicalis ATCC 13803 after 24 hrs by two fold serial dilution method; format: functional; details: ATCC 13803, 24 h
Clavispora lusitaniae = assay: Antifungal activity against Candida lusitaniae ATCC 42720 after 24 hrs by two fold serial dilution method; format: functional; details: ATCC 42720, 24 h
Pichia kudriavzevii = assay: Antifungal activity against Candida krusei ATCC 6258 after 24 hrs by two fold serial dilution method; format: functional; details: ATCC 6258, 24 h
Aspergillus fumigatus = assay: Antifungal activity against Aspergillus fumigatus ATCC 16424 after 24 hrs by two fold serial dilution method; format: functional; details: ATCC 16424, 24 h
Aspergillus terreus = assay: Antifungal activity against Aspergillus terreus ATCC 46941 after 24 hrs by two fold serial dilution method; format: functional; details: ATCC 46941, 24 h
Cryptococcus neoformans = assay: Antifungal activity against Cryptococcus neoformans ATCC 36556 after 24 hrs by two fold serial dilution method; format: functional; details: ATCC 36556, 24 h
Mus musculus [1] = assay: Toxicity ICR mouse assessed as mortality at 33 to 900 mg/kg, po after 7 days; format: organism-based; set-up: dose 33-900 mg/kg, route oral; details: in vivo, 168 h
[2] = Toxicity in po dosed ICR mouse after 7 days; format: organism-based; details: in vivo
Mus musculus [3] = assay: Toxicity ICR mouse assessed as appearance of clinical signs at 33 to 900 mg/kg, po after 7 days; format: organism-based; set-up: dose 33-900 mg/kg, route oral; details: in vivo, 168 h
Mus musculus [4] = assay: Toxicity ICR mouse assessed as effect on body weight at 33 to 900 mg/kg, po after 7 days; format: organism-based; set-up: dose 33-900 mg/kg, route oral; details: in vivo, 168 h
Mus musculus [5] = assay: Toxicity ICR mouse assessed as effect on internal organ morphology at 33 to 900 mg/kg, po after 7 days by microscopy; format: organism-based; set-up: dose 33-900 mg/kg, route oral; details: in vivo, 168 h

Row | SMILES | MIC (Candida albicans) [µg/mL] | MIC (Candida tropicalis) [µg/mL] | MIC (Clavispora lusitaniae) [µg/mL] | MIC (Pichia kudriavzevii) [µg/mL] | MIC (Aspergillus fumigatus) [µg/mL] | MIC (Aspergillus terreus) [µg/mL] | MIC (Cryptococcus neoformans) [µg/mL] | Activity (Mus musculus [1]) | LD50 at 168 h [2] [mg/kg] | Activity (Mus musculus [3]) | Activity (Mus musculus [4]) | Activity (Mus musculus [5])
1 | COc1ccc2c(Cc3ccc(C(C)C)cc3)c3[n+](cc2c1OC)CCc1cc2c(cc1-3)OCO2 | 4 | 1 | 1 | 4 | 64 | 32 | 4 | – | – | – | – | –
2 | COc1ccc2c(Cc3ccc(C(C)C)cc3)c3[n+](cc2c1OCc1ccccc1)CCc1cc2c(cc1-3)OCO2.[Cl-] | 4 | 4 | 4 | 4 | 64 | 32 | 4 | – | – | – | – | –
3 | COc1ccc2c(Cc3ccc(C(C)C)cc3)c3[n+](cc2c1OCc1cc(F)c(F)c(F)c1)CCc1cc2c(cc1-3)OCO2.[Cl-] | 4 | 4 | 4 | 4 | 32 | 32 | 4 | – | – | – | – | –
4 | COc1ccc2c(Cc3ccc(C(C)C)cc3)c3[n+](cc2c1OC(C)(C)C)CCc1cc2c(cc1-3)OCO2.[Cl-] | 4 | 1 | 1 | 4 | 32 | 32 | 4 | – | – | – | – | –
5 | COc1ccc2c(Cc3ccc(C(C)C)cc3)c3n(cc-2c1=O)CCc1cc2c(cc1-3)OCO2 | 16 (≈ 35.3 µM) | 16 (≈ 35.3 µM) | 16 (≈ 35.3 µM) | 16 (≈ 35.3 µM) | > 128 | > 128 | 4 (≈ 8.82 µM) | – | – | – | – | –
6 | COc1ccc2c(Cc3ccc(C(C)C)cc3)c3[n+](cc2c1OC(C)=O)CCc1cc2c(cc1-3)OCO2.[Cl-] | 16 | 16 | 16 | 16 | > 128 | > 128 | 8 | – | – | – | – | –
7 | CCCC(=O)Oc1c(OC)ccc2c(Cc3ccc(C(C)C)cc3)c3[n+](cc12)CCc1cc2c(cc1-3)OCO2.[Cl-] | 8 | 8 | 8 | 8 | > 128 | > 128 | 4 | – | – | – | – | –
8 | CCCCOc1c(OC)ccc2c(Cc3ccc(C(C)C)cc3)c3[n+](cc12)CCc1cc2c(cc1-3)OCO2.[Cl-] | 0.5 | 0.25 | 0.25 | 1 | 2 | 4 | 1 | Non-toxic | 900 | Non-toxic | Non-toxic | Non-toxic
9 | CCC(C)(C)Oc1c(OC)ccc2c(Cc3ccc(C(C)C)cc3)c3[n+](cc12)CCc1cc2c(cc1-3)OCO2.[Cl-] | 2 | 1 | 1 | 4 | 32 | 16 | 4 | – | – | – | – | –
10 | COc1ccc2c(Cc3ccc(C(C)C)cc3)c3[n+](cc2c1OCCCO)CCc1cc2c(cc1-3)OCO2.[Cl-] | 2 | 1 | 1 | 2 | 8 | 8 | 2 | – | – | – | – | –
11 | C[C@@H]1[C@H](O)[C@@H](C)/C=C/C=C/C=C/C=C/C=C/C=C/C=C/[C@H](O[C@@H]2O[C@H](C)[C@@H](O)[C@H](N)[C@@H]2O)C[C@@H]2O[C@](O)(C[C@@H](O)C[C@@H](O)[C@H](O)CC[C@@H](O)C[C@@H](O)CC(=O)O[C@H]1C)C[C@H](O)[C@H]2C(=O)O [AMPHOTERICIN B] | 0.5 (≈ 0.541 µM) | 0.5 (≈ 0.541 µM) | 1 (≈ 1.08 µM) | 0.5 (≈ 0.541 µM) | 1 (≈ 1.08 µM) | 16 (≈ 17.3 µM) | 0.25 (≈ 0.271 µM) | – | – | – | – | –

The remaining compounds from weak to strong by MIC (Candida albicans), led by results:

Row | MIC (Candida albicans) [µg/mL] | MIC (Candida tropicalis) [µg/mL] | MIC (Clavispora lusitaniae) [µg/mL] | MIC (Pichia kudriavzevii) [µg/mL] | MIC (Aspergillus fumigatus) [µg/mL] | MIC (Aspergillus terreus) [µg/mL] | MIC (Cryptococcus neoformans) [µg/mL] | SMILES | Activity (Mus musculus [1]) | LD50 at 168 h [2] [mg/kg] | Activity (Mus musculus [3]) | Activity (Mus musculus [4]) | Activity (Mus musculus [5])
12 | 2 | 2 | 2 | 4 | 16 | 16 | 4 | COc1ccc2c(Cc3ccc(C(C)C)cc3)c3[n+](cc2c1OCc1ccc(C(F)(F)F)cc1)CCc1cc2c(cc1-3)OCO2.[Cl-] | – | – | – | – | –
13 | 2 | 2 | 2 | 4 | 32 | 16 | 4 | COc1ccc2c(Cc3ccc(C(C)C)cc3)c3[n+](cc2c1OCc1ccc(OC(F)(F)F)cc1)CCc1cc2c(cc1-3)OCO2.[Cl-] | – | – | – | – | –
14 | 1 | 1 | 1 | 2 | 4 | 8 | 2 | COc1ccc2c(Cc3ccc(C(C)C)cc3)c3[n+](cc2c1OCc1ccc(C(C)C)cc1)CCc1cc2c(cc1-3)OCO2.[Cl-] | – | – | – | – | –
15 | 1 | 1 | 1 | 4 | 4 | 8 | 2 | COc1ccc2c(Cc3ccc(C(C)C)cc3)c3[n+](cc2c1OCc1ccc(C(C)(C)C)cc1)CCc1cc2c(cc1-3)OCO2.[Cl-] | – | – | – | – | –
16 | 1 | 0.5 | 0.5 | 2 | 4 | 8 | 2 | CCCOc1c(OC)ccc2c(Cc3ccc(C(C)C)cc3)c3[n+](cc12)CCc1cc2c(cc1-3)OCO2.[Cl-] | – | – | – | – | –
17 | 1 | 1 | 1 | 2 | 8 | 8 | 2 | C=CCOc1c(OC)ccc2c(Cc3ccc(C(C)C)cc3)c3[n+](cc12)CCc1cc2c(cc1-3)OCO2.[Cl-] | – | – | – | – | –
18 | 0.5 | 0.5 | 0.5 | 1 | 2 | 4 | 1 | C/C=C/COc1c(OC)ccc2c(Cc3ccc(C(C)C)cc3)c3[n+](cc12)CCc1cc2c(cc1-3)OCO2.[Cl-] | – | – | – | – | –
